pIC50: −log10 of the molar value. Where two headings read alike, the source gives them in different places.
Assays:
[1] = system: NF-Y binding at ICB1 of Topoisomerase IIα promoter; assay: NF-Y gel shift assay (EMSA) at ICB1
[2] = system: 170 bp sequence of the human Topo-IIa promoter; assay: DNase I footprinting on Topo-IIa promoter (ICB1, ICB2 sites); type: binding
How it was run: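 DNase I footprinting on a 170 bp human Topo-IIa promoter fragment, compound lanes at 0, 1.6, 8, 40, 200, 1000, 5000 and 25000 nM. Values are the concentrations (μM) at which binding at the ICB1 and ICB2 sites is seen.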

[3] = molecular target: 262 bp DNA fragment (MS2F or MS2R) of MS2 plasmid; assay: DNase I footprinting on MS2 DNA fragment; type: binding
Experimental: The sequence selectivity of the six PBD-pyrrole conjugates (21, 23, 25, 27, 29) was evaluated by standard DNA footprinting on a fragment of MS2 as follows, in accordance with the technique described in Martin, C., et al., (Martin, C., et al., Biochemistry, 44(11), 4135-4147 (2005))
Forward (5′-[…]-3′) or reverse (5′-[…]-3′) primer was 5′-end labelled with ^32P by T4 polynucleotide kinase. Labelling mixture contained primer (5 pmol; Sigma-Genosys), 10× kinase buffer (1 μl; Promega), (γ-^32P)-ATP (2μ of 10 μCi/μl, 6000 Ci/mmol; Perkin Elmer Life Sciences), and T4 polynucleotide kinase (10 U; Promega) in a 10 μl final volume. Labelling mix was incubated at 37° C. for 30 minutes followed by inactivation of the kinase at 70° C. for 10 minutes. A 262 bp DNA fragment (MS2F or MS2R) was amplified from the MS2 plasmid using PCR with either labelled forward or reverse primer and the unlabelled primer as required. Reactions were comprised of labelled primer mix (10 μl), 10×PCR buffer (5 μl; Sigma), dNTPs (5 μl; 2.5 mM each of A, C, G and T, Amersham Pharmacia), unlabelled primer as required ([…]), MS2 plasmid template DNA (10 ng) and Taq DNA polymerase (5 U; Sigma) in a 50 μl final volume. Radiolabelled 262-mer was purified by non-denaturing polyacrylamide gel electrophoresis, elution, filtration and EtOH precipitation and was resuspended in a solution of Tris-HCl (10 mM) pH 7.4/NaCl (10 mM) to yield an activity of 200 counts per second per 5 μl when held up, in a pipette tip, to a capped Morgan series 900 mini-monitor.
For DNase I footprinting radiolabelled 262-mer (2 μl) was incubated overnight (16-18 h) with drug solution (388 μl) or in an aqueous buffer [HEPES (20 mM) pH 7.9, NaCl (50 mM), MgCl2 (1 mM), DTT (5 mM), 10% glycerol] in control reactions. Enzymatic cleavage was initiated by addition of DNase I solution (10 μl of 0.05 U/ml; Sigma) in aqueous NaCl (200 mM), MgCl2 (20 mM) and MnCl2 (20 mM) and halted with stop solution [40 μl of NaCl (2.25 M), EDTA (150 mM) pH 8.0, 0.57 μg/μl glycogen (0.57 μg/μl; Roche), poly(dl-dC).poly(dl-dC) DNA (19.3 ng/μl; Amersham Pharmacia)]. From this mixture, digested DNA fragments were prepared for electrophoresis following the protocol of Trauger & Dervan, and were loaded on to a preheated 8% denaturing polyacrylamide gel. Electrophoresis in 1×TBE buffer was allowed to proceed for 100 min at 70 W (1600-2000 V). The gel was the fixed in acetic acid (10% v/v) and methanol (10% v/v) for 15 minutes followed by being blotted onto Whatman 3 mM paper and vacuum-dried at 80° C. for 45 minutes.
Dried gels were stored at room temperature in phosphor storage screens (Molecular Dynamics) for a minimum period of 12 h. Data were collected from exposed screens using a Molecular Dynamics 425E Phosphorlmager and transferred to ImageQuant v1.2 software (Molecular Dynamics) for analysis. Data were expressed as the differential cleavage between control and sample lanes. Peaks were integrated and differential cleavage calculated as ln(fd)−ln(fc); (fd is the fractional cleavage at any particular bond in the presence of drug and fc is the fractional cleavage of the same bond in the control). Maxam-Gilbert G+A marker lanes were prepared in the usual fashion.
The vast majority of footprint sites are common features in the binding profiles of all six conjugates, with only a small number of sites being footprinted by a subset of the family. Even more unexpectedly, no site is footprinted by only one molecule (in fact, the fewest number of conjugates that bind at any single site is four). The differential cleavage plot provides footprinting profiles at a supramaximal concentration colour-coded for each conjugate which illustrates a striking degree of overlap. Although there is no conspicuous change in footprinting patterns as the number of pyrroles units in each conjugate increases, there are changes in two other features, namely, the apparent binding affinity and the width of the footprinted site. […]

[4] = system: NF-Y binding at ICB2 of Topoisomerase IIα promoter; assay: NF-Y gel shift assay (EMSA) at ICB2

| Compound | Lowest concentration at which NF-Y binding inhibition was observed [1] | Concentration at which DNA binding is observed, ICB1 ([2]; ICB1 site) | Concentration at which DNA binding is observed, ICB2 ([2]; ICB2 site) | pIC50 ([3]; read-out: DNase IC50 (apparent binding affinity; 50% inhibition of DNase I-mediated cleavage), estimated by eye, site 5′-62CAATACACA70-3′) | Lowest concentration at which NF-Y binding inhibition was observed [4] | apparent binding affinity of C11 relative to 25 ([3]; C11 approximately 3 μM versus 25 30-100 nM) | Footprint Position D ([3]; MS2 DNA fragment, position D) | Footprint Position G ([3]; MS2 DNA fragment, position G) | Footprint Position K ([3]; MS2 DNA fragment, position K) | Footprint Position L ([3]; MS2 DNA fragment, position L) | Footprint Position M ([3]; MS2 DNA fragment, position M) | pIC50 ([3]; estimated by eye from footprint gel, read-out: DNase IC50 (apparent binding affinity)) |
| --- | --- | --- | --- | --- | --- | --- | --- | --- | --- | --- | --- | --- |
| COC(=O)c1cc(NC(=O)c2cc(NC(=O)CCCOc3cc4c(cc3OC)C(=O)N3CCC[C@H]3C=N4)cn2C)cn1C [Compound 23, (11aS) Methyl 4-({4-[4-(7-Methoxy-6-oxo-2,3,5,11a-tetrahydro-5H-pyrrolo[2,1-c][1,4]benzodiazepine-8-yloxy)-butyrylamino]-1-methyl-1H-pyrrole-2-carbonyl}-amino)-1-methyl-1H-pyrrole-2-carboxylate] | 5 µM | 1 µM | 1 µM | 6.52 to 7.00 | 5 µM |  |  |  |  |  |  |  |
| COC(=O)c1cc(NC(=O)c2cc(NC(=O)c3cc(NC(=O)CCOc4cc5c(cc4OC)C(=O)N4CCC[C@H]4C=N5)cn3C)cn2C)cn1C [Compound C11, (11aS) Methyl 4-{[4-({4-[4-(7-Methoxy-5-oxo-2,3,5,11a-tetrahydro-5H-pyrrolo[2,1-c][1,4]benzodiazepine-8-yloxy)-propionylamino]-1-methyl-1H-pyrrole-2-carbonyl]-amino)-1-methyl-1H-pyrrole-2-carbonyl]-amino}-1-methyl-1H-pyrrole-2-carboxylate] |  |  |  |  |  | 30-100 fold | lack of footprints | lack of footprints | much weaker binding | much weaker binding | lack of footprints | ~5.52 |

From patent US8637664B2, “Alkyl 4- [4- (5-oxo-2,3,5, 11a-tetrahydo-5H-pyrrolo [2, 1-c] [1,4] benzodiazepine-8-yloxy)-butyrylamino]-1H-pyrrole-2-carboxylate derivatives and related compounds for the treatment of a proliferative disease” (Spirogen SARL, priority 2005, dated 2014)
